In general, melting point refers to the temperature, or range, at which the solid turns liquid.

Data on 21 compounds can be found in patent US8183234B2, “Tricyclic guanidine derivatives as sodium-proton exchange inhibitors” (Piramal Life Sciences Limited, priority 2004, dated 2012).

Compound `CNCCNc1cc(Cl)c2c(c1)CS(=O)(=O)c1cc(C(=O)NC(=N)N)cc(C)c1O2.CS(=O)(=O)O.CS(=O)(=O)O` [Example 71, N-[4-Chloro-6-methyl-2-(2-methylamino-ethylamino)-10,10-dioxo-10,11-dihydro-5-oxa-10lambda*6*-thia-dibenzo[a,d]cycloheptene-8-carbonyl)-guanidine dimesylate] had a melting point of 250 to 251 °C. For `CS(=O)(=O)O.CS(=O)(=O)O.Cc1cc(C(=O)NC(=N)N)cc2c1Oc1c(Cl)cc(N(CCN3CCCC3)C(=O)OCC(C)C)cc1CS2(=O)=O` [Example 74, (4-Chloro-8-guanidinocarbonyl-6-methyl-10,10-dioxo-10,11-dihydro-5-oxa-10lambda*6*-thia-dibenzo[a,d]cycloheptene-2-yl)-(2-pyrrolidin-1-yl-ethyl)-carbamic acid isobutylester dimesylate] the value was 198 to 200 °C; for `CS(=O)(=O)O.CS(=O)(=O)O.Cc1cc(C(=O)NC(=N)N)cc2c1Oc1c(Cl)cc(N(CCN3CCCC3)C(=O)C3CC3)cc1CS2(=O)=O` [Example 76, Cyclopropanecarboxylic acid (4-chloro-8-guanidinocarbonyl-6-methyl-10,10-dioxo-10,11-dihydro-5-oxa-10lambda*6*-thia-dibenzo[a,d]cyclohepten-2-yl)-(2-pyrrolidin-1-yl-ethyl)-amide dimesylate], 178 to 179 °C; for `COCC(=O)N(CCN1CCCC1)c1cc(Cl)c2c(c1)CS(=O)(=O)c1cc(C(=O)NC(=N)N)cc(C)c1O2.CS(=O)(=O)O.CS(=O)(=O)O` [Example 77, N-(4-Chloro-8-guanidinocarbonyl-6-methyl-10,10-dioxo-10,11-dihydro-5-oxa-10lambda*6*-thia-dibenzo[a,d]cyclohepten-2-yl)-2-methoxy-N-(2-pyrrolidin-1-yl-ethyl)-acetamide dimesylate], 204 to 206 °C. For `CS(=O)(=O)O.CS(=O)(=O)O.Cc1cc(C(=O)NC(=N)N)cc2c1Oc1c(Cl)cc(NCCNCCN3CCOCC3)cc1CS2(=O)=O` [Example 79, N-{4-Chloro-6-methyl-2-[2-(2-morpholin-4-yl-ethylamino)-ethylamino]-10,10-dioxo-10,11-dihydro-5-oxa-10lambda*6*-thia-dibenzo[a,d]cycloheptene-8-carbonyl}-guanidine dimesylate] the value was 255 to 256 °C; for `CS(=O)(=O)O.CS(=O)(=O)O.CS(=O)(=O)O.Cc1cc(C(=O)NC(=N)N)cc2c1Oc1c(Cl)cc(NCCNCCc3ccccn3)cc1CS2(=O)=O` [Example 83, N-{4-Chloro-6-methyl-10,10-dioxo-2-[2-(2-pyridin-2-yl-ethylamino)-ethylamino]-10,11-dihydro-5-oxa-10lambda*6*-thia-dibenzo[a,d]cycloheptene-8-carbonyl}-guanidine trimesylate], 196 to 198 °C; for `CS(=O)(=O)O.CS(=O)(=O)O.Cc1cc(C(=O)NC(=N)N)cc2c1Oc1c(Cl)cc(NCCNCc3cccs3)cc1CS2(=O)=O` [Example 86, N-(4-Chloro-6-methyl-10,10-dioxo-2-{2-[(thiophen-2-ylmethyl)-amino]-ethylamino}-10,11-dihydro-5-oxa-10lambda*6*thia-dibenzo[a,d]cycloheptene-8-carbonyl)-guanidine dimesylate], 243 to 245 °C. The result for `CCN(CCN(CC)c1cc(Cl)c2c(c1)CS(=O)(=O)c1cc(C(=O)NC(=N)N)cc(C)c1O2)Cc1cccs1.CS(=O)(=O)O.CS(=O)(=O)O` [Example 87, N-(4-Chloro-2-{ethyl-[2-(ethyl-thiophen-2-ylmethyl-amino)-ethyl]-amino}-6-methyl-10,10-dioxo-10,11-dihydro-5-oxa-10lambda*6*-thia-dibenzo[a,d]cycloheptene-8-carbonyl)-guanidine dimesylate] reads 156 to 158 °C.

The compound `CS(=O)(=O)O.CS(=O)(=O)O.Cc1cc(C(=O)NC(=N)N)cc2c1Oc1c(Cl)cc(NCCNCc3ccccc3)cc1CS2(=O)=O` [Example 88, N-[2-(2-Benzylamino-ethylamino)-4-chloro-6-methyl-10,10-dioxo-10,11-dihydro-5-oxa-10lambda*6*-thia-dibenzo[a,d]cycloheptene-8-carbonyl]-guanidine dimesylate] registered a melting point of 232 to 233 °C. For `COc1ccccc1CNCCNc1cc(Cl)c2c(c1)CS(=O)(=O)c1cc(C(=O)NC(=N)N)cc(C)c1O2.CS(=O)(=O)O.CS(=O)(=O)O` [Example 90, N-{4-Chloro-2-[2-(2-methoxy-benzylamino)-ethylamino]-6-methyl-10,10-dioxo-10,11-dihydro-5-oxa-10lambda*6*-thia-dibenzo[a,d]cycloheptene-8-carbonyl}-guanidine dimesylate] the value was 224 to 225 °C; for `CS(=O)(=O)O.CS(=O)(=O)O.CS(=O)(=O)O.Cc1cc(C(=O)NC(=N)N)cc2c1Oc1c(Cl)cc(N(CCN3CCCCC3)C(=O)C3CC3)cc1CS2(=O)=O` [Example 95, Cyclopropanecarboxylic acid (4-chloro-8-guanidinocarbonyl-6-methyl-10,10-dioxo-10,11-dihydro-5-oxa-10lambda*6*-thia-dibenzo[a,d]cycloheptene-2-yl)-(2-piperidin-1-yl-ethyl)-amide trimesylate], 276 °C.

Compound `CC(=O)N(CCN(C)C)c1cc(Cl)c2c(c1)CS(=O)(=O)c1cc(C(=O)NC(=N)N)cc(C)c1O2.CS(=O)(=O)O.CS(=O)(=O)O.CS(=O)(=O)O` [Example 100, N-(4-Chloro-8-guanidinocarbonyl-6-methyl-10,10-dioxo-10,11-dihydro-5-oxa-10lambda*6*-thia-dibenzo[a,d]cyclohepten-2-yl)-N-(2-dimethylamino-ethyl)-acetamide trimesylate] returned a melting point of 128 to 130 °C.

Take `CS(=O)(=O)O.CS(=O)(=O)O.Cc1cc(C(=O)NC(=N)N)cc2c1Oc1c(Cl)cc(N(CCN(C)C)C(=O)C(C)(C)C)cc1CS2(=O)=O` [Example 101, N-(4-Chloro-8-guanidinocarbonyl-6-methyl-10,10-dioxo-10,11-dihydro-5-oxa-10lambda*6*-thia-dibenzo[a,d]cyclohepten-2-yl)-N-(2-dimethylamino-ethyl)-2,2-dimethyl-propionamide dimesylate]: the melting point lay within 171 to 173 °C. The result for `CS(=O)(=O)O.CS(=O)(=O)O.CS(=O)(=O)O.Cc1cc(C(=O)NC(=N)N)cc2c1Oc1c(Cl)cc(N3CCNCC3)cc1CS2(=O)=O` [Example 104, N-(4-Chloro-6-methyl-10,10-dioxo-2-piperazin-1-yl-10,11-dihydro-5-oxa-10lambda*6*-thia-dibenzo[a,d]cycloheptene-8-carbonyl)-guanidine trimesylate] reads 203 to 205 °C; that for `CCCCCCCCCCN1CCN(c2cc(Cl)c3c(c2)CS(=O)(=O)c2cc(C(=O)NC(=N)N)cc(C)c2O3)CC1.CS(=O)(=O)O.CS(=O)(=O)O` [Example 105, N-[4-Chloro-2-(4-decyl-piperazin-1-yl)-6-methyl-10,10-dioxo-10,11-dihydro-5-oxa-10lambda*6*-thia-dibenzo[a,d]cycloheptene-8-carbonyl]-guanidine dimesylate], 184 to 185 °C.

On to `CCCCCN1CCN(c2cc(Cl)c3c(c2)CS(=O)(=O)c2cc(C(=O)NC(=N)N)cc(C)c2O3)CC1.CS(=O)(=O)O.CS(=O)(=O)O` [Example 106, N-[4-Chloro-6-methyl-10,10-dioxo-2-(4-pentyl-piperazin-1-yl)-10,11-dihydro-5-oxa-10-lambda*6*-thia-dibenzo[a,d]cycloheptene-8-carbonyl]-guanidine dimesylate], for which the melting point was 250 to 251 °C. The result for `CS(=O)(=O)O.CS(=O)(=O)O.Cc1cc(C(=O)NC(=N)N)cc2c1Oc1c(Cl)cc(N3CCN(C(=O)c4ccc[nH]4)CC3)cc1CS2(=O)=O` [Example 110, N-{4-Chloro-6-methyl-10,10-dioxo-2-[4-(1H-pyrrole-2-carbonyl)-piperazin-1-yl]-10,11-dihydro-5-oxa-10lambda*6*-thia-dibenzo[a,d]cycloheptene-8-carbonyl}-guanidine dimesylate] reads 306 to 307 °C; that for `CCN1CCN(c2cc(Cl)c3c(c2)CS(=O)(=O)c2cc(C(=O)NC(=N)N)cc(C)c2O3)CC1.CS(=O)(=O)O.CS(=O)(=O)O` [Example 116, N-[4-Chloro-2-(4-ethyl-piperazin-1-yl)-6-methyl-10,10-dioxo-10,11-dihydro-5-oxa-10lambda*6*-thia-dibenzo[a,d]cycloheptene-8-carbonyl]-guanidine dimesylate], 255 to 257 °C. In the case of `CS(=O)(=O)O.CS(=O)(=O)O.CS(=O)(=O)O.Cc1cc(C(=O)NC(=N)N)cc2c1Oc1c(Cl)cc(N3CCN(CCN(C)C)CC3)cc1CS2(=O)=O` [Example 119, N-{4-Chloro-2-[4-(2-dimethylamino-ethyl)-piperazin-1-yl]-6-methyl-10,10-dioxo-10,11-dihydro-5-oxa-10lambda*6*-thia-dibenzo[a,d]cycloheptene-8-carbonyl}-guanidine trimesylate], the melting point fell in the range of 243 to 245 °C.

`CS(=O)(=O)O.CS(=O)(=O)O.CS(=O)(=O)O.Cc1cc(C(=O)NC(=N)N)cc2c1Oc1c(Cl)cc(N3CCN(CCN4CCOCC4)CC3)cc1CS2(=O)=O` [Example 121, N-{4-Chloro-6-methyl-2-[4-(2-morpholin-4-yl-ethyl)-piperazin-1-yl]-10,10-dioxo-10,11-dihydro-5-oxa-10lambda*6*-thia-dibenzo[a,d]cycloheptene-8-carbonyl}-guanidine trimesylate] returned a melting point of 185 to 187 °C. For `CS(=O)(=O)O.CS(=O)(=O)O.Cc1cc(C(=O)NC(=N)N)cc2c1Oc1c(Cl)cc(N3CCN(CC4CC4)CC3)cc1CS2(=O)=O` [Example 123, N-[4-Chloro-2-(4-cyclopropylmethyl-piperazin-1-yl)-6-methyl-10,10-dioxo-10,11-dihydro-5-oxa-10lambda*6*-thia-dibenzo[a,d]cycloheptene-8-carbonyl]-guanidine dimesylate] the value was 282 to 287 °C.
